# Like-named read-outs stand apart in the source and are kept apart here. Starred links: 1 amine or outer side, 2 acyl side, 3 side chain; linkers in the order of their positions; H or OH if unused. Positions of bridges follow the written chain, without caps; N, C: chain ends. Non-standard residues stand in square brackets, D forms with d. Residues, ends and D or L forms follow the SMILES beside them. Groups on a side chain read outwards from the residue. *: point of attachment. X1 = O=C(CCCC[C@@H]1SC[C@@H]2NC(=O)N[C@@H]21)NCCCOCCOCCOCCCN*; Tyr(3-NO2) = N[C@@H](Cc1ccc(O)c([N+](=O)[O-])c1)C(=O)O; Glutaryl = O=C(CCCC(=O)[*:2])[*:1]; Hyp = O=C(O)[C@@H]1C[C@@H](O)CN1; PEG4 = NCCOCCOCCOCCOCCC(=O)O
# Columns and labels:
# A549 = system: A549; design: key to the marks not given beside the values; conditions: Table S1; human; flow cytometry, 1 µM biotinylated peptide, 2 mM MnCl2, on ice
# PC-3 or A431 cells = conditions: PC-3 or A431 cells, incubated at 37 °C, streptavidin staining
# Procedure: washed as described above and then re-suspended in Eagle’s minimum essential medium
# incubated on ice or at 37°C. At different time points after washing 50 µl samples were taken
# and added to 50 µl of Streptavidin- PerCP-Cy5.5 (diluted 1:200), incubated on ice f or 15 min,
# washed with PBS, and analyzed in PBS with Hoechst solution. Fluorescent signals were
# plotted against time between washing and streptavidin addition.
# over time after incubation on ice and at 37°C.
# labeled streptavidin as described previously f or flow cytometry assays.
# primary lymphocytes = assay: Flow cytometry binding to cells; conditions: 1 µM biotinylated peptide; further: key: ++: Strong binding; +: medium binding; +/−: weak binding; −: no binding
# [1] = system: primary macrophages 7 days; assay: Flow cytometry binding to cells; conditions: 1 µM biotinylated peptide; on binding to macrophages 7 days: key: ++: strong binding; +: m edium binding; +/-: weak or heterogeneous binding; -: no binding
# foreskin fibroblasts = conditions: flow cytometry, 1 µM biotinylated peptide
# primary macrophages 7d = assay: Flow cytometry binding to cells; conditions: 1 µM biotinylated peptide; further: key: ++: Strong binding; +: medium binding; +/−: weak binding; −: no binding
# primary monocytes = assay: Flow cytometry binding to cells; conditions: 1 µM biotinylated peptide; further: key: ++: Strong binding; +: medium binding; +/−: weak binding; −: no binding
# L-929 = conditions: Table S1; mouse; flow cytometry, 1 µM biotinylated peptide, 2 mM MnCl2, on ice
# Procedure: (§1) from DSMZ or LGC and cultured according to the distributors’ guidelines. Human, murine or
# (§2) guinea pig leukocytes or macrophages were isolated and cultured as described below. Cells
# (§3) growing in monolayers were detached using trypsin/EDTA and then re- suspended in complete
# (§4) culture medium. After washing with washing buffer (W B: 0.9% NaCl, 10 mM Hepes, pH 7.3) at
# (§5) 4°C, cells were re-suspended at 2x10^6 cells/ml in peptide blocking b uf f er ( PBB: 0.9% NaCl,
# (§6) 10 m M H epes, pH 7.3, 5 m M KCl , 3% BSA, 5% FCS) and incubated for 10 minutes on ice
# (§7) concentration in PBB were added to equal volumes of aliquots of 1x10^5 cells, and were
# (§8) incubated f or 30 min on ice with repeated shaking to keep the cells in suspension. Except
# (§9) three times wit h 1 ml W B, followed by incubation with streptavidin labeled wit h PerCP-Cy5.5
# (§10) (BD Biosciences, 200 µg/ml; diluted 1:400 in PBB) for 15 min on ice. After one additional
# (§11) wa s h ing step with phosphate- buffered saline (PBS) at 4°C, samples were re-suspended in
# (§12) PBS with Hoechst 33258 solution (0.5 µg/ml) and analyzed using a F ACS Canto system ( at
# (§13) least 1x10^4 cells per sample were counted). Evaluations were performed using FloJo software. […]
# (§14) indicated cases the geometrical mean f luorescence was recorded. […]
# (§15) which half-maximum binding intensity was reached (KD) was calculated using Origin 9.0 […]
# VX2 / J S-2-2r = assay: Flow cytometry binding to cells; design: key: ++: strong binding; +: m edium binding; +/-: weak or heterogeneous binding; -: no binding; conditions: Table S1, rabbit, 1 µM biotinylated peptide, 2 mM MnCl2, on ice
# NIH-3T3 = conditions: mouse, flow cytometry, 1 µM biotinylated peptide
# Procedure: as §1, §2, §3, §4, §5, §6, §7, §8, §9, §10, §11, §12
# least 1x10^4 cells per sample were counted). Evaluations were performed using FloJo software.
# W hole cells were gated i n a FSC/SSC plot and live gating was based on Hoechst exclusion.
# After gating out debris, aggregates and dead cells, overlay histograms in the PerCP-Cy5.5
# indicated cases the geometrical mean f luorescence was recorded.
# For determining binding affinity, a rang e of concentrations of the biotinylated compound was
# tested and the f luorescent signals were plotted against concentration. The concentration at
# which half-maximum binding intensity was reached (KD) was calculated using Origin 9.0
# sof tware and a “one site specif ic binding” fit (y =(Bmax* x) /(KD+x) ).
# f luorescent signals were plotted against competitor concentration. The concentration at which
# leukocytes = conditions: Table S1; rabbit; flow cytometry, 1 µM biotinylated peptide, 2 mM MnCl2, on ice
# JH4 clone 1 = assay: Flow cytometry binding to cells; design: key to the marks not given beside the values; conditions: 1 µM biotinylated peptide
# primary monocytes 2 days = assay: Flow cytometry binding to cells; conditions: 1 µM biotinylated peptide; further: key: ++: Strong binding; +: medium binding; +/−: weak binding; −: no binding
# C26 = conditions: Table S1; mouse; flow cytometry, 1 µM biotinylated peptide, 2 mM MnCl2, on ice
# HT-29 = assay: Flow cytometry binding to cells; design: key: ++: strong binding; +: m edium binding; +/-: weak or heterogeneous binding; -: no binding; conditions: Table S1, human, 1 µM biotinylated peptide, 2 mM MnCl2, on ice
# PC-3 = assay: Flow cytometry binding to cells; design: species or system Human; key to the marks not given beside the values; conditions: 1 µM biotinylated peptide
# K562 = assay: Flow cytometry binding to cells; design: species or system Human; conditions: 1 µM biotinylated peptide; further: key: ++: Strong binding; +: medium binding; +/−: weak binding; −: no binding
# HUVEC = assay: Flow cytometry binding to cells; design: species or system Human; conditions: 1 µM biotinylated peptide
# GPC-16 = assay: Flow cytometry binding to cells; design: key to the marks not given beside the values; conditions: 1 µM biotinylated peptide
# MHEC5-T = conditions: Table S1; mouse; flow cytometry, 1 µM biotinylated peptide, 2 mM MnCl2, on ice
# MC38 = conditions: Table S1; mouse; flow cytometry, 1 µM biotinylated peptide, 2 mM MnCl2, on ice
# 4T1 = conditions: Table S1; mouse; flow cytometry, 1 µM biotinylated peptide, 2 mM MnCl2, on ice
# Procedure: as §1, §2, §3, §4, §5, §6, §7, §8, §9, §10, §11, §12, §13, §14, §15
# U-87MG = assay: Flow cytometry binding to cells; design: key: ++: strong binding; +: m edium binding; +/-: weak or heterogeneous binding; -: no binding; conditions: Table S1, human, 1 µM biotinylated peptide, 2 mM MnCl2, on ice
# 3LL-S = conditions: Table S1; mouse; flow cytometry, 1 µM biotinylated peptide, 2 mM MnCl2, on ice
# PBEC = conditions: Table S1; pig; flow cytometry, 1 µM biotinylated peptide, 2 mM MnCl2, on ice
# primary granulocytes = assay: Flow cytometry binding to cells; conditions: 1 µM biotinylated peptide; further: key: ++: Strong binding; +: medium binding; +/−: weak binding; −: no binding
# MCF-7 = assay: Flow cytometry binding to cells; conditions: Table S1, human, 1 µM biotinylated peptide, 2 mM MnCl2, on ice; further: key: ++: strong binding; +: m edium binding; +/-: weak or heterogeneous binding; -: no binding
# U-138MG = assay: Flow cytometry binding to cells; design: key: ++: strong binding; +: m edium binding; +/-: weak or heterogeneous binding; -: no binding; conditions: Table S1, human, 1 µM biotinylated peptide, 2 mM MnCl2, on ice
# A431 = assay: Flow cytometry binding to cells; design: species or system Human; key to the marks not given beside the values; conditions: 1 µM biotinylated peptide
# TSA = conditions: Table S1; mouse; flow cytometry, 1 µM biotinylated peptide, 2 mM MnCl2, on ice
# HeLa = system: HeLa; design: key to the marks not given beside the values; conditions: Table S1; human; flow cytometry, 1 µM biotinylated peptide, 2 mM MnCl2, on ice
# Hepa1–6 = conditions: mouse, flow cytometry, 1 µM biotinylated peptide
# EG7 = conditions: Table S1; mouse; flow cytometry, 1 µM biotinylated peptide, 2 mM MnCl2, on ice
# J774A.1 = conditions: mouse, flow cytometry, 1 µM biotinylated peptide
# 104C1 = assay: Flow cytometry binding to cells; design: key to the marks not given beside the values; conditions: 1 µM biotinylated peptide
# 3LL-R = conditions: mouse, flow cytometry, 1 µM biotinylated peptide
# E0771 = conditions: Table S1; mouse; flow cytometry, 1 µM biotinylated peptide, 2 mM MnCl2, on ice
# Procedure: as §1, §2, §3, §4, §5, §6, §7, §8, §9, §10, §11, §12, §13, §14, §15
# MDA-MB-231 = assay: Flow cytometry binding to cells; design: key: ++: strong binding; +: m edium binding; +/-: weak or heterogeneous binding; -: no binding; conditions: Table S1, human, 1 µM biotinylated peptide, 2 mM MnCl2, on ice
# [2] = Table S1, human, 2 mM MnCl2, on ice
# [3] = human, 2 mM MnCl2, 30 min on ice, streptavidin-PerCP-Cy5.5
# [4] = 2 mM MnCl2, 30 min on ice, streptavidin-PerCP-Cy5.5
# [5] = Table S1, guinea pig, 2 mM MnCl2, on ice
# [6] = guinea pig, 2 mM MnCl2, 30 min on ice, streptavidin-PerCP-Cy5.5
smiles,measurement,setting,value
NC(=O)C[C@@H]1NC(=O)[C@@H]2C[C@@H](O)CN2C(=O)CNC(=O)[C@H](Cc2ccc(O)c([N+](=O)[O-])c2)NC(=O)CNC(=O)[C@@H](CC(=O)O)NC(=O)[C@H](N)CSSC[C@H](C(=O)NCCOCCOCCOCCOCCC(=O)N[C@@H](CCCCNC(=O)CCCC(=O)NCCCOCCOCCOCCCNC(=O)CCCC[C@@H]2SC[C@@H]3NC(=O)N[C@@H]32)C(N)=O)NC1=O [B9-Biotin] (H-[dC][dD]G[Tyr(3-NO2)]G[Hyp]N[dC][PEG4]K([Glutaryl-X1])-NH2; disulfide 1-8),binding to A549,A549,++
same,streptavidin signal on cells after 5 min,PC-3 or A431 cells,no signal above background
same,binding to fresh lymphocytes,primary lymphocytes; [2],-
same,binding to primary lymphocytes,primary lymphocytes; [3],−
same,binding to macrophages 7 days,[1]; [2],+/-
same,binding to primary macrophages 7 days,[1]; [3],+/−
same,binding to foreskin fibroblasts,foreskin fibroblasts; [2],-
same,binding to foreskin fibroblasts,foreskin fibroblasts; [4],−
same,binding to macrophages 7d,"primary macrophages 7d; Table S1, mouse, 2 mM MnCl2, on ice",-
same,binding to primary macrophages 7d,"primary macrophages 7d; mouse, 2 mM MnCl2, 30 min on ice, streptavidin-PerCP-Cy5.5",−
same,binding to fresh monocytes,primary monocytes; [2],-
same,binding to primary monocytes,primary monocytes; [3],−
same,binding to L-929,L-929,-
same,binding to VX2 / J S-2-2r,VX2 / J S-2-2r,++
same,binding to NIH-3T3,"NIH-3T3; Table S1, 2 mM MnCl2, on ice",+
same,binding to NIH-3T3,NIH-3T3; [4],+
same,binding to leukocytes,leukocytes,-
same,binding to JH4 clone 1,JH4 clone 1; [5],++
same,binding to JH4 clone 1,JH4 clone 1; [6],++
same,binding to monocytes 2 days,primary monocytes 2 days; [2],-
same,binding to primary monocytes 2 days,primary monocytes 2 days; [3],−
same,binding to C26,C26,+
same,binding to HT-29,HT-29,++
same,binding to PC-3,PC-3; [4],++
same,binding to PC-3,PC-3; [2],++
same,binding to K562,K562; [4],−
same,binding to K562,K562; [2],-
same,binding to HUVEC,HUVEC; [4],+
same,binding to HUVEC,HUVEC; [2],+
same,binding to GPC-16,GPC-16; [5],++
same,binding to GPC-16,GPC-16; [6],++
same,binding to MHEC5-T,MHEC5-T,+
same,binding to MC38,MC38,-
same,binding to 4T1,4T1,+
same,binding to U-87MG,U-87MG,++
same,binding to 3LL-S,3LL-S,+
same,binding to PBEC,PBEC,+
same,binding to fresh granulocytes,primary granulocytes; [2],-
same,binding to primary granulocytes,primary granulocytes; [3],−
same,binding to MCF-7,MCF-7,+
same,binding to U-138MG,U-138MG,++
same,binding to A431,A431; [4],++
same,binding to A431,A431; [2],++
same,binding to TSA,TSA,+
same,binding to HeLa,HeLa,++
same,binding to Hepa1-6,"Hepa1–6; Table S1, 2 mM MnCl2, on ice",+
same,binding to Hepa1–6,Hepa1–6; [4],+
same,binding to EG7,EG7,-
same,binding to J774A.1,"J774A.1; Table S1, 2 mM MnCl2, on ice",-
same,binding to J774A.1,J774A.1; [4],−
same,binding to 104C1,104C1; [5],++
same,binding to 104C1,104C1; [6],++
same,binding to 3LL-R,"3LL-R; Table S1, 2 mM MnCl2, on ice",+
same,binding to 3LL-R,3LL-R; [4],+
same,binding to E0771,E0771,-
same,binding to MDA-MB-231,MDA-MB-231,++

# Source: paper PMC5730604
